Laboratory results reported in patent publication USRE34165E, “Potent thymopentin analogs” (Ortho Pharmaceutical Corporation, priority 1990, dated 1993).
Like-named read-outs stand apart in the source and are kept apart here. Non-standard residues stand in square brackets, D forms with d. Residues, ends and D or L forms follow the SMILES beside them. No end group written: not given here. Aib = CC(C)(N)C(=O)O

Columns and labels:
[1] = tested on: cell membrane receptor of the intact CEM cell; test: Cyclic-GMP assay: induction of cyclic-GMP production in intact CEM cells; format: cell-based, human; conditions: for Concentration of c-GMP Produced: 4-5 min at 37° C.; for Result on the cyclic-GMP assay (in words): in comparison with thymopentin
Description: This biological activity is evidenced by an assay measuring induction of cyclic-GMP production in a human T-cell line in comparison with thymopoietin. The induction of c-GMP production by a test peptide in this assay indicates the ability of the test peptide to bind to the thymopoietin receptor site on the cell and induce thymopoietin-like biological activity. […] Because of the expense of preparing peptides and the rapid degradation of peptides often observed in living systems, peptides such as those herein which have increased potency are greatly prized.
This assay measures the ability of the test peptide to bind to the cell membrane receptor of the intact CEM cell and selectively stimulate production of cyclic-GMP, as does thymopoietin itself.
The CEM cell line was obtained from the American Type Culture Collection and was cultured in RPMI-1640 medium supplemented with 10% heat-inactivated fetal bovine serum, 10% heat-inactivated horse serum, 2 mM L-glutamine, and 50 µg/ml gentamycin at 37° C. in a humid atmosphere containing 5 percent CO2, to a final density of 3-4×10^6 cells/ml. At this concentration, the cells were in the early stationary phase of the growth curve and were judged greater than 90% viable by trypan blue exclusion. The cells were grown for four days and harvested. After harvesting, the cells were washed three times in PBS and were resuspended in RPMI-1640 medium at a concentration of 3.12×10^7 cells/ml. After the cells had been allowed to equilibrate at 37° C. for 30 min, various concentrations of the test peptides were added in a volume of 25 μl of medium to 1 ml of cells, the initial concentration of test compound added being selected to yield the desired final concentration of test peptide in the medium. The test peptide was mixed instantly with the cell suspension. The incubation was allowed to proceed in a shaking water bath at 37° C. for 4-5 min and was then terminated by addition of ice-cold trichloroacetic acid (10%; 1 ml).
The cells in TCA were then homogenized and sonicated to release cyclic nucleotide. The resulting suspension was centrifuged at 3000 g for 20 min at 4° C. and the resulting precipitate was dissolved in 0.1N NaOH and sonicated for a further 30 minutes, after which the protein content was determined by the method of Cadman, et al., Anal. Biochem., 96, 21-23 (1979). The TCA was removed from the supernatant fraction by extracting four times with 5 ml of water-saturated diethyl ether. After the final extraction, the remaining traces of ether were removed from the supernatant fraction by heating it for 10 min in a 50° C. water bath. After lyophilization of the extracted supernatant fraction, it was reconstituted in 50 mM acetate buffer, ph 6.2, for radioimmunoassay of cyclic nucleotide using the assay kit NEX-133, New England Nuclear, Boston, Mass. 02113.
A conventional competition radioimmunoassay against radio labelled cyclic GMP was conducted to determine the amount of cyclic GMP induced by each concentration of test peptide. Results are shown in FIG. 1 and in the following table, in which representative subject peptides have been assayed in comparison with thymopentin (designated "TP-5") and a "nonsense" peptide H-ASP-ARG-TYR-LYS-VAL-OH.

[2] = tested on: isolated thymopoietin cell surface receptor protein from CEM cells; conditions: for Displacement of 125I-TP (in words): comparison peptides
[3] = Concentration of Peptide 10^0 μg/ml
[4] = Concentration of Peptide 10^1 μg/ml
[5] = at equivalent concentrations, with thymopoietin 37-45 nonapeptide, 12 h incubation
[6] = Concentration of Peptide 10^3 μg/ml
[7] = Concentration of Peptide 10^4 μg/ml

CC(C)[C@H](NC(=O)[C@H](CC(=O)O)NC(=O)[C@H](CCCCN)NC(=O)[C@@H](N)CCCNC(=N)N)C(=O)N[C@@H](Cc1c[nH]cn1)C(=O)O [H--ARG--LYS--ASP--VAL--HIS--OH, Arginyl-Lysyl-Aspartyl-Valyl-Histidine] (H-RKDVH-OH)
Concentration of c-GMP Produced [1, 3]: 0 picomoles/ml | Concentration of c-GMP Produced [1, 4]: 9 picomoles/ml | Displacement of 125I-TP relative to that caused by thymopoietin self-displacement [2, 5]: at least 50%

CC(C)[C@H](NC(=O)[C@H](CC(=O)O)NC(=O)[C@H](CCCCN)NC(=O)[C@@H](N)CCCNC(=N)N)C(=O)N[C@@H](Cc1ccccc1)C(=O)O [H--ARG--LYS--ASP--VAL--PHE--OH, Arginyl-Lysyl-Aspartyl-Valyl-Phenylalanine] (H-RKDVF-OH)
Concentration of c-GMP Produced [1, 3]: 6 picomoles/ml | Concentration of c-GMP Produced [1, 4]: 9 picomoles/ml | Displacement of 125I-TP relative to that caused by thymopoietin self-displacement [2, 5]: at least 50%

CC(C)[C@H](NC(=O)[C@H](CC(=O)O)NC(=O)[C@@H]1CCCN1C(=O)[C@@H](N)CCCNC(=N)N)C(=O)N[C@@H](Cc1ccccc1)C(=O)O [H--ARG--PRO--ASP--VAL--PHE--OH, Arginyl-Prolyl-Aspartyl-Valyl-Phenylalanine] (H-RPDVF-OH)
Concentration of c-GMP Produced [1, 3]: 0 picomoles/ml | Concentration of c-GMP Produced [1, 4]: 12 picomoles/ml | Displacement of 125I-TP relative to that caused by thymopoietin self-displacement [2, 5]: at least 50%

CC(C)[C@H](NC(=O)[C@H](CCCCN)NC(=O)[C@H](Cc1ccc(O)cc1)NC(=O)[C@H](CCCNC(=N)N)NC(=O)[C@@H](N)CC(=O)O)C(=O)O [H--ASP--ARG--TYR--LYS--VAL--OH, H-ASP-ARG-TYR-LYS-VAL-OH, reference compound] (H-DRYKV-OH)
Concentration of c-GMP Produced [1, 6]: 0 picomoles/ml | Concentration of c-GMP Produced [1, 7]: 0 picomoles/ml | Concentration of c-GMP Produced ([1]; Concentration of Peptide 10^5 μg/ml): 0 picomoles/ml

CC(C)[C@H](NC(=O)[C@H](CC(=O)O)NC(=O)[C@H](CCCCN)NC(=O)[C@@H](N)CCCNC(=N)N)C(=O)N[C@@H](Cc1c[nH]c2ccccc12)C(N)=O [H-ARG-LYS-ASP-VAL-TRP-NH2, Arginyl-Lysyl-Aspartyl-Valyl-Tryptophan amide] (H-RKDVW-NH2)
Result on the cyclic-GMP assay (in words) [1]: superior results | Displacement of 125I-TP relative to that caused by thymopoietin self-displacement [2, 5]: at least 50%

CC(C)[C@H](NC(=O)[C@H](CC(=O)O)NC(=O)[C@H](CCCCN)NC(=O)[C@@H](N)CCCNC(=N)N)C(=O)N[C@@H](Cc1c[nH]c2ccccc12)C(=O)O [H-ARG-LYS-ASP-VAL-TRP-OH, Arginyl-Lysyl-Aspartyl-Valyl-Tryptophan] (H-RKDVW-OH)
Result on the cyclic-GMP assay (in words) [1]: superior results | Displacement of 125I-TP relative to that caused by thymopoietin self-displacement [2, 5]: at least 50%

CC(=O)N[C@@H](CCCNC(=N)N)C(=O)NC(C)(C)C(=O)N[C@@H](CC(=O)O)C(=O)N[C@H](C(=O)N[C@@H](Cc1ccccc1)C(N)=O)C(C)C [N-α-acetyl-ARG-AIB-ASP-VAL-PHE-NH2, Acetyl-Arginyl-α-Aminoisobutyryl-Aspartyl-Valyl-Phenylalaminamide] (Ac-R[Aib]DVF-NH2)
Result on the cyclic-GMP assay (in words) [1]: superior results

CC(=O)N[C@@H](CCCNC(=N)N)C(=O)N1CCC[C@H]1C(=O)N[C@@H](CC(=O)O)C(=O)N[C@H](C(=O)N[C@@H](Cc1ccccc1)C(N)=O)C(C)C [N-α-acetyl-ARG-PRO-ASP-VAL-PHE-NH2, Acetyl-Arginyl-Prolyl-Aspartyl-Valyl-Phenylalanineamide] (Ac-RPDVF-NH2)
Result on the cyclic-GMP assay (in words) [1]: superior results

CC(C)[C@H](NC(=O)[C@H](CC(=O)O)NC(=O)[C@H](CCCCN)NC(=O)[C@@H](N)CCCN=C(N)N)C(=O)N[C@@H](Cc1ccc(O)cc1)C(=O)O [TP-5, thymopentin] (H-RKDVY-OH)
Concentration of c-GMP Produced [1, 3]: 0 picomoles/ml | Concentration of c-GMP Produced [1, 4]: 4.5 picomoles/ml | Concentration of c-GMP Produced ([1]; Concentration of Peptide 10^2 μg/ml): 9 picomoles/ml | Concentration of c-GMP Produced [1, 6]: 12 picomoles/ml | Concentration of c-GMP Produced [1, 7]: 14 picomoles/ml

C[C@H](N)C(=O)NCC(=O)N[C@H]1CSSC[C@@H](C(=O)O)NC(=O)[C@H](CO)NC(=O)[C@H]([C@@H](C)O)NC(=O)[C@H](Cc2ccccc2)NC(=O)[C@H]([C@@H](C)O)NC(=O)[C@H](CCCCN)NC(=O)[C@H](Cc2c[nH]c3ccccc23)NC(=O)[C@H](Cc2ccccc2)NC(=O)[C@H](Cc2ccccc2)NC(=O)[C@H](CC(N)=O)NC(=O)[C@H](CCCCN)NC1=O [somatostatin]
Displacement of 125I-TP (in words) [2]: no detectable displacement

CC(=O)N[C@@H](CCCNC(=N)N)C(=O)N1CCC[C@H]1C(=O)N[C@@H](CC(=O)O)C(=O)N[C@H](C(=O)N[C@@H](Cc1ccccc1)C(=O)O)C(C)C [α-acetyl-ARG--PRO--ASP--VAL--PHE--OH, N^α -Acetyl-Arginyl-Prolyl-Aspartyl-Valyl-Phenylaline] (Ac-RPDVF-OH)
Concentration of c-GMP Produced [1, 3]: 7 picomoles/ml | Concentration of c-GMP Produced [1, 4]: 15 picomoles/ml | Displacement of 125I-TP relative to that caused by thymopoietin self-displacement [2]: at least 50%

N^α -Acetyl-Arginyl-3,4-dehydro-Prolyl-Aspartyl-Valyl-Tyrosineamide
Result on the cyclic-GMP assay (in words) [1]: superior results

adrenocorticotropic hormone (SYSMEHFRWGKPVGKKRRPVKVYPNGAEDESAEAFPLEF; Corticotropin; UniProt P01189 138-176, looked up) [ACTH]
Displacement of 125I-TP (in words) [2]: no detectable displacement

corticotropin-releasing factor (SEEPPISLDLTFHLLREVLEMARAEQLAQQAHSNRKLMEII; ends and bridges not checked; UniProt P06850 154-194, looked up) [CRF]
Displacement of 125I-TP (in words) [2]: no detectable displacement

facteur thymique serique [FTS]
Displacement of 125I-TP (in words) [2]: no detectable displacement

growth hormone
Displacement of 125I-TP (in words) [2]: no detectable displacement

ubiquitin
Displacement of 125I-TP (in words) [2]: no detectable displacement

β-endorphin (YGGFMTSEKSQTPLVTLFKNAIIKNAYKKGE; Beta-endorphin; UniProt P01189 237-267, looked up)
Displacement of 125I-TP (in words) [2]: no detectable displacement
